The results in this text go back to patent US12404289B2 (Gilead Sciences, Inc., priority 2020, dated 2025).

Molecules are shown by their SMILES.

The subject of the first assay is Respiratory syncytial virus (RSV) strain A2. The assay is described as follows: Hep-2 RSV2 384-well assay (EC50-HEP2-384). It counts as cell-based. As to conditions: HEp-2 cells, RSV A2, MOI=4, 4 days, Table 3.
`C[C@H](NP(=O)(OC[C@H]1O[C@@](C#N)(c2ccc3c(N)ncnn23)[C@H](O)[C@@H]1O)Oc1ccc(C(C)(C)C)cc1)C(=O)OC1CC2(CCCC2)C1` (stereo partly drawn) [Example 97b, Spiro[3.4]octan-2-yl ((((2R,3S,4R,5R)-5-(4-aminopyrrolo[2,1-f][1,2,4]triazin-7-yl)-5-cyano-3,4-dihydroxytetrahydrofuran-2-yl)methoxy)(4-(tert-butyl)phenoxy)phosphoryl)-L-alaninate] yielded an EC50 of 106 nM. Still for that read-out and setting: to `CC(=O)O[C@H]1[C@@H](OC(C)=O)[C@](C#N)(c2ccc3c(N)ncnn23)O[C@@H]1COP(=O)(N[C@@H](C)C(=O)OC1CC2(CCCC2)C1)Oc1ccc(C(C)(C)C)cc1` (stereo partly drawn) [Example 98b, (2R,3R,4R,5R)-2-(4-aminopyrrolo[2,1-f][1,2,4]triazin-7-yl)-5-((((4-(tert-butyl)phenoxy)(((S)-1-oxo-1-(spiro[3.4]octan-2-yloxy)propan-2-yl)amino)phosphoryl)oxy)methyl)-2-cyanotetrahydrofuran-3,4-diyl Diacetate] belongs 52.2 nM; to `CCC(=O)O[C@H]1[C@@H](OC(=O)CC)[C@](C#N)(c2ccc3c(N)ncnn23)O[C@@H]1COP(=O)(N[C@@H](C)C(=O)OC1CC2(CCCC2)C1)Oc1ccc(C(C)(C)C)cc1` (stereo partly drawn) [Example 99b, (2R,3R,4R,5R)-2-(4-aminopyrrolo[2,1-f][1,2,4]triazin-7-yl)-5-((((4-(tert-butyl)phenoxy)(((S)-1-oxo-1-(spiro[3.4]octan-2-yloxy)propan-2-yl)amino)phosphoryl)oxy)methyl)-2-cyanotetrahydrofuran-3,4-diyl Dipropionate], 66.9 nM. The same measure, in the same setting: the same measure for `CC(C)C(=O)O[C@H]1[C@@H](OC(=O)C(C)C)[C@](C#N)(c2ccc3c(N)ncnn23)O[C@@H]1COP(=O)(N[C@@H](C)C(=O)OC1CC2(CCCC2)C1)Oc1ccc(C(C)(C)C)cc1` (stereo partly drawn) [Example 100b, (2R,3R,4R,5R)-2-(4-aminopyrrolo[2,1-f][1,2,4]triazin-7-yl)-5-((((4-(tert-butyl)phenoxy)(((S)-1-oxo-1-(spiro[3.4]octan-2-yloxy)propan-2-yl)amino)phosphoryl)oxy)methyl)-2-cyanotetrahydrofuran-3,4-diyl bis(2-methylpropanoate)]: 95.5 nM. Still for that read-out and setting: to `C[C@H](NP(=O)(OC[C@H]1O[C@@](C#N)(c2ccc3c(N)ncnn23)[C@H](O)[C@@H]1O)Oc1ccc(C(C)(C)C)cc1)C(=O)OCC1CC1` (stereo partly drawn) [Example 101b, Cyclopropyl methyl ((((2R,3S,4R,5R)-5-(4-aminopyrrolo[2,1-f][1,2,4]triazin-7-yl)-5-cyano-3,4-dihydroxytetrahydrofuran-2-yl)methoxy)(4-(tert-butyl)phenoxy)phosphoryl)-L-alaninate] belongs 79.2 nM; to `CCC(=O)O[C@H]1[C@@H](OC(=O)CC)[C@](C#N)(c2ccc3c(N)ncnn23)O[C@@H]1COP(=O)(N[C@@H](C)C(=O)OCCC(C)(C)CC)Oc1ccccc1` (stereo partly drawn) [Example 105b, (2R,3R,4R,5R)-2-(4-aminopyrrolo[2,1-f][1,2,4]triazin-7-yl)-2-cyano-5-((((((S)-1-((3,3-dimethylpentyl)oxy)-1-oxopropan-2-yl)amino)(phenoxy)phosphoryl)oxy)methyl)tetrahydrofuran-3,4-diyl Dipropionate], 60.7 nM.

Staying with this assay, now noted: human respiratory syncytial virus, HEp-2, 96 h, HEp-2 cells, RSV A2, MOI=4, 4 days, Table 3.
On to `C[C@H](NP(=O)(OC[C@H]1O[C@@](C#N)(c2ccc3c(N)ncnn23)[C@H](O)[C@@H]1O)Oc1ccc(C(C)(C)C)cc1)C(=O)OC1CC2(CCCC2)C1` (stereo partly drawn) [Example 97a, Spiro[3.4]octan-2-yl ((((2R,3S,4R,5R)-5-(4-aminopyrrolo[2,1-f][1,2,4]triazin-7-yl)-5-cyano-3,4-dihydroxytetrahydrofuran-2-yl)methoxy)(4-(tert-butyl)phenoxy)phosphoryl)-L-alaninate], for which the concentration for a half-maximal effect (EC50) was determined as 103 nM. The same measure, in the same setting: the same measure for `CCC(=O)O[C@H]1[C@@H](OC(=O)CC)[C@](C#N)(c2ccc3c(N)ncnn23)O[C@@H]1COP(=O)(N[C@@H](C)C(=O)OC1CC2(CCCC2)C1)Oc1ccc(C(C)(C)C)cc1` (stereo partly drawn) [Example 99a, (2R,3R,4R,5R)-2-(4-aminopyrrolo[2,1-f][1,2,4]triazin-7-yl)-5-((((4-(tert-butyl)phenoxy)(((S)-1-oxo-1-(spiro[3.4]octan-2-yloxy)propan-2-yl)amino)phosphoryl)oxy)methyl)-2-cyanotetrahydrofuran-3,4-diyl Dipropionate]: 81.7 nM; for `CC(C)C(=O)O[C@H]1[C@@H](OC(=O)C(C)C)[C@](C#N)(c2ccc3c(N)ncnn23)O[C@@H]1COP(=O)(N[C@@H](C)C(=O)OC1CC2(CCCC2)C1)Oc1ccc(C(C)(C)C)cc1` (stereo partly drawn) [Example 100a, (2R,3R,4R,5R)-2-(4-aminopyrrolo[2,1-f][1,2,4]triazin-7-yl)-5-((((4-(tert-butyl)phenoxy)(((S)-1-oxo-1-(spiro[3.4]octan-2-yloxy)propan-2-yl)amino)phosphoryl)oxy)methyl)-2-cyanotetrahydrofuran-3,4-diyl bis(2-methylpropanoate)]: 111 nM. Still for that read-out and setting: the same measure for `COC(C)(C)COC(=O)[C@H](C)NP(=O)(OC[C@H]1O[C@@](C#N)(c2ccc3c(N)ncnn23)[C@H](O)[C@@H]1O)Oc1cccc2ccccc12` (stereo partly drawn) [Example 128, 2-methoxy-2-methylpropyl ((((2R,3S,4R,5R)-5-(4-aminopyrrolo[2,1-f][1,2,4]triazin-7-yl)-5-cyano-3,4-dihydroxytetrahydrofuran-2-yl)methoxy)(naphthalen-1-yloxy)phosphoryl)-L-alaninate]: 525 nM; for `CCC(CC)COC(=O)[C@H](C)NP(=O)(OC[C@H]1O[C@@](C#N)(c2ccc3c(N)ncnn23)[C@H](O)[C@@H]1O)Oc1ccc2c(c1)CCCC2` (stereo partly drawn) [Example 129, 2-ethylbutyl ((((2R,3S,4R,5R)-5-(4-aminopyrrolo[2,1-f][1,2,4]triazin-7-yl)-5-cyano-3,4-dihydroxytetrahydrofuran-2-yl)methoxy)((5,6,7,8-tetrahydronaphthalen-2-yl)oxy)phosphoryl)-L-alaninate]: 362 nM. On to `CCC(=O)O[C@H]1[C@@H](OC(=O)CC)[C@](C#N)(c2ccc3c(N)ncnn23)O[C@@H]1COP(=O)(N[C@@H](C)C(=O)OCC(C)(C)OC)Oc1ccc(C(C)(C)C)cc1` (stereo partly drawn) [Example 130, (2R,3R,4R,5R)-2-(4-aminopyrrolo[2,1-f][1,2,4]triazin-7-yl)-5-((((4-(tert-butyl)phenoxy)(((S)-1-(2-methoxy-2-methylpropoxy)-1-oxopropan-2-yl)amino)phosphoryl)oxy)methyl)-2-cyanotetrahydrofuran-3,4-diyl Dipropionate], for which the EC50 was found to be 52.8 nM. The same measure, in the same setting: to `COC(C)(C)COC(=O)[C@H](C)NP(=O)(OC[C@H]1O[C@@](C#N)(c2ccc3c(N)ncnn23)[C@H](OC(C)=O)[C@@H]1OC(C)=O)Oc1ccc(C(C)(C)C)cc1` (stereo partly drawn) [Example 131, (2R,3R,4R,5R)-2-(4-aminopyrrolo[2,1-f][1,2,4]triazin-7-yl)-5-((((4-(tert-butyl)phenoxy)(((S)-1-(2-methoxy-2-methylpropoxy)-1-oxopropan-2-yl)amino)phosphoryl)oxy)methyl)-2-cyanotetrahydrofuran-3,4-diyl Diacetate] belongs 56.2 nM.

By EC50 is commonly meant the concentration that produces a half-maximal response.
